Measurements published in patent US8299070B2, “Indole compounds and pharmaceutical use thereof” (Japan Tobacco Inc., priority 2009, dated 2012).

biological target: T1, hITK enzyme (FLAG-tagged full-length hITK) (Homo sapiens, UniProt Q08881); experiment: ITK inhibitory activity (HTRF kinase assay, biotinylated GST-SLP76 substrate); type: biochemical; settings: IC50 calculated from the 2 test compound concentrations sandwiching 50% ITK inhibitory rate
T1 construct: strongly expressing FLAG-tagged full-length hITK in Sf9 cells; FLAG; made in house; host or cells: Sf9 insect cells (ITK); Escherichia coli (GST-SLP76 substrate)
T1 sequence (Q08881 1-620): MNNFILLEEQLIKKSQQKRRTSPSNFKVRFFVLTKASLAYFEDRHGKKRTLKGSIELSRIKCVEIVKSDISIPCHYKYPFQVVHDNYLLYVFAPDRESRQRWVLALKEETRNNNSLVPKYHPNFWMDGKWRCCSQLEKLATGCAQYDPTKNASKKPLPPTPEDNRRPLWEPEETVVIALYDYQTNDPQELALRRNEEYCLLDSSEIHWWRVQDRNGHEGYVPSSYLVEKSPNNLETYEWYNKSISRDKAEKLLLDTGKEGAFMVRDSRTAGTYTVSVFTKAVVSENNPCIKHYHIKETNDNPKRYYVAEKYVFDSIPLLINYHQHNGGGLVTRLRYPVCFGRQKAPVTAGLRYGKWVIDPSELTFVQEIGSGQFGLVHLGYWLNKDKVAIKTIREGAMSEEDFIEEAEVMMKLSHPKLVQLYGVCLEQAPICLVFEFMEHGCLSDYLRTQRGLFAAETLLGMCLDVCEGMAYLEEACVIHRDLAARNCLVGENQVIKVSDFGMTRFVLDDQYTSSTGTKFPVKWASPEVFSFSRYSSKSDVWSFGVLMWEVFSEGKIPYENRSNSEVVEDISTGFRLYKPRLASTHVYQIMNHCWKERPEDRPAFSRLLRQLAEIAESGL
Method in brief: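 Sf9-expressed hITK (50 ng/mL enzyme solution) reacted 10 min at RT in MOPS pH 7.0, 10 mmol/L MgCl2, 1 mmol/L DTT with E. coli SLP76 aa95–175 substrate; substrate solution held 100 µmol/L ATP (6 µmol/L for selected compounds). HTRF 665/620 ratio, blank-corrected; IC50 interpolated between two concentrations bracketing 50% inhibition.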

SMILES	IC50
CCN(C(=O)CC1CCOCC1)c1ccc2cc(-c3n[nH]c4c3CCC(C)(C)C4)[nH]c2c1 [Example 268]	5 nM
COCCN(C(=O)CC1CCOCC1)c1ccc2cc(-c3n[nH]c4c3CCC(C)(C)C4)[nH]c2c1 [Example 269]	6 nM
CCN(C(=O)CN1CCCCCC1=O)c1ccc2cc(-c3n[nH]c4c3CCC(C)(C)C4)[nH]c2c1 [Example 270]	2 nM
CCN(C(=O)CN1C(=O)COC[C@@H]1C)c1ccc2cc(-c3n[nH]c4c3CCC(C)(C)C4)[nH]c2c1 [Example 271]	3 nM
CCN(C(=O)CC1CCC(OC)CC1)c1ccc2cc(-c3n[nH]c4c3CCC(C)(C)C4)[nH]c2c1 (centres unmarked) [Example 273]	11 nM
COCCN(C(=O)CC1CCC(OC)CC1)c1ccc2cc(-c3n[nH]c4c3CCC(C)(C)C4)[nH]c2c1 (centres unmarked) [Example 274]	9 nM
CCN(C(=O)CN1C[C@H](C)OCC1=O)c1ccc2cc(-c3n[nH]c4c3CCC(C)(C)C4)[nH]c2c1 [Example 279]	< 1 nM
COCCN(C(=O)CN1CCCCCC1=O)c1ccc2cc(-c3n[nH]c4c3CCC(C)(C)C4)[nH]c2c1 [Example 281]	1 nM
CCN(C(=O)CN1CCOCC1=O)c1ccc2cc(-c3n[nH]c4c3CCC(C)(C)C4)[nH]c2c1 [Example 288]	1 nM
CCN(C(=O)CN1CCCCC1=O)c1ccc2cc(-c3n[nH]c4c3CCC(C)(C)C4)[nH]c2c1 [Example 289]	< 1 nM
CCN(C(=O)CC(C)(C)O)c1ccc2cc(-c3n[nH]c4c3CCC(C)(C)C4)[nH]c2c1 [Example 290]	8 nM
CN(C(=O)c1ccc2[nH]c(-c3n[nH]c4c3CCC(C)(C)C4)cc2c1)c1ccccc1 [Example 295]	138 nM
CC1(C)CCc2c(-c3cc4cc(C(N)=O)ccc4[nH]3)n[nH]c2C1 [Example 297]	48 nM
CC(N(C)C(=O)c1ccc2[nH]c(-c3n[nH]c4c3CCC(C)(C)C4)cc2c1)C(C)(C)C (centres unmarked) [Example 300]	221 nM
COC(=O)CNC(=O)c1ccc2[nH]c(-c3n[nH]c4c3CCC(C)(C)C4)cc2c1 [Example 305]	13 nM
CCCOCCNC(=O)c1ccc2[nH]c(-c3n[nH]c4c3CCC(C)(C)C4)cc2c1 [Example 308]	49 nM
CC1(C)CCc2c(-c3cc4cc(C(=O)NCCOc5ccccc5)ccc4[nH]3)n[nH]c2C1 [Example 309]	102 nM
COCCNC(=O)c1ccc2[nH]c(-c3n[nH]c4c3CCC(C)(C)C4)cc2c1 [Example 310]	47 nM
CN(Cc1ccccc1)C(=O)c1ccc2[nH]c(-c3n[nH]c4c3CCC(C)(C)C4)cc2c1 [Example 314]	143 nM
CC1(C)CCc2c(-c3cc4cc(C(=O)NCc5ccccc5)ccc4[nH]3)n[nH]c2C1 [Example 315]	60 nM
CC1(C)CCc2c(-c3cc4cc(C(=O)NCc5nccs5)ccc4[nH]3)n[nH]c2C1 [Example 316]	47 nM
CC1(C)CCc2c(-c3cc4cc(C(=O)NCc5ccoc5)ccc4[nH]3)n[nH]c2C1 [Example 318]	45 nM
CON(C)C(=O)c1ccc2[nH]c(-c3n[nH]c4c3CCC(C)(C)C4)cc2c1 [Example 321]	48 nM
CN(C)CCNC(=O)c1ccc2[nH]c(-c3n[nH]c4c3CCC(C)(C)C4)cc2c1 [Example 323]	34 nM
CC1(C)CCc2c(-c3cc4cc(C(=O)Nc5nnc(O)s5)ccc4[nH]3)n[nH]c2C1 [Example 324]	140 nM
CC1(C)CCc2c(-c3cc4cc(C(=O)NC(C)(C)C(=O)O)ccc4[nH]3)n[nH]c2C1 [Example 326]	42 nM
CC1(C)CCc2c(-c3cc4cc(C(=O)NC(CO)CO)ccc4[nH]3)n[nH]c2C1 [Example 328]	26 nM
CCN(C)C(=O)c1ccc2[nH]c(-c3n[nH]c4c3CCC(C)(C)C4)cc2c1 [Example 331]	60 nM

Further compounds by falling IC50, results first:

IC50	SMILES
263 nM	CC1(C)CCc2c(-c3cc4cc(C(=O)Nc5ccccc5)ccc4[nH]3)n[nH]c2C1 [Example 293]
246 nM	COc1nnc(NC(=O)c2ccc3[nH]c(-c4n[nH]c5c4CCC(C)(C)C5)cc3c2)s1 [Example 325]
132 nM	CC1(C)CCc2c(-c3cc4cc(C(=O)NC(C)(C)C(=O)OC(C)(C)C)ccc4[nH]3)n[nH]c2C1 [Example 327]
80 nM	CCN(CC)C(=O)c1ccc2[nH]c(-c3n[nH]c4c3CCC(C)(C)C4)cc2c1 [Example 330]
74 nM	CC(NC(=O)c1ccc2[nH]c(-c3n[nH]c4c3CCC(C)(C)C4)cc2c1)C(C)(C)C (centres unmarked) [Example 299]
61 nM	CC(C)OCCNC(=O)c1ccc2[nH]c(-c3n[nH]c4c3CCC(C)(C)C4)cc2c1 [Example 307]
58 nM	CN(C)C(=O)c1ccc2[nH]c(-c3n[nH]c4c3CCC(C)(C)C4)cc2c1 [Example 296]
51 nM	CNC(=O)c1ccc2[nH]c(-c3n[nH]c4c3CCC(C)(C)C4)cc2c1 [Example 294]
49 nM	CC1(C)CCc2c(-c3cc4cc(C(=O)NC(C)(C)CO)ccc4[nH]3)n[nH]c2C1 [Example 320]
47 nM	COCCN(C)C(=O)c1ccc2[nH]c(-c3n[nH]c4c3CCC(C)(C)C4)cc2c1 [Example 313]
46 nM	Cn1cccc1CNC(=O)c1ccc2[nH]c(-c3n[nH]c4c3CCC(C)(C)C4)cc2c1 [Example 319]
44 nM	CC1(C)CCc2c(-c3cc4cc(C(=O)N5CCOCC5)ccc4[nH]3)n[nH]c2C1 [Example 298]
41 nM	CC1(C)CCc2c(-c3cc4cc(C(=O)NCCN5CCOCC5)ccc4[nH]3)n[nH]c2C1 [Example 322]
39 nM	CC1(C)CCc2c(-c3cc4cc(C(=O)N5CCC(O)CC5)ccc4[nH]3)n[nH]c2C1 [Example 302]
37 nM	CC1(C)CCc2c(-c3cc4cc(C(=O)N5CCCC(O)C5)ccc4[nH]3)n[nH]c2C1 (centres unmarked) [Example 301]
33 nM	CC1(C)CCc2c(-c3cc4cc(C(=O)NCCO)ccc4[nH]3)n[nH]c2C1 [Example 303]
32 nM	COC(=O)CN(C)C(=O)c1ccc2[nH]c(-c3n[nH]c4c3CCC(C)(C)C4)cc2c1 [Example 311]
27 nM	CN(CCO)C(=O)c1ccc2[nH]c(-c3n[nH]c4c3CCC(C)(C)C4)cc2c1 [Example 304]
27 nM	CC1(C)CCc2c(-c3cc4cc(C(=O)NCC(=O)O)ccc4[nH]3)n[nH]c2C1 [Example 306]

IC50	SMILES
27 nM	CN(CC(=O)O)C(=O)c1ccc2[nH]c(-c3n[nH]c4c3CCC(C)(C)C4)cc2c1 [Example 312]
21 nM	CC1(C)CCc2c(-c3cc4cc(C(=O)NCc5nnn[nH]5)ccc4[nH]3)n[nH]c2C1 [Example 317]
13 nM	Cn1cncc1CNC(=O)c1ccc2[nH]c(-c3n[nH]c4c3CCC(C)(C)C4)cc2c1 [Example 329]
5 nM	COCCN(c1ccc2cc(-c3n[nH]c4c3CCC(C)(C)C4)[nH]c2c1)C(=O)[C@H]1CC[C@@H](OC)CC1 [Example 267]
4 nM	COCCN(C(=O)[C@H](C)N1CCOCC1)c1ccc2cc(-c3n[nH]c4c3CCC(C)(C)C4)[nH]c2c1 [Example 276]
3 nM	COCCN(C(=O)CN1C(=O)COC[C@@H]1C)c1ccc2cc(-c3n[nH]c4c3CCC(C)(C)C4)[nH]c2c1 [Example 272]
2 nM	CCN(C(=O)[C@H](C)N1CCOCC1)c1ccc2cc(-c3n[nH]c4c3CCC(C)(C)C4)[nH]c2c1 [Example 275]
2 nM	COCCN(C(=O)CN1C[C@H](C)OCC1=O)c1ccc2cc(-c3n[nH]c4c3CCC(C)(C)C4)[nH]c2c1 [Example 280]
2 nM	CCN(C(=O)CN1C[C@@H](C)OCC1=O)c1ccc2cc(-c3n[nH]c4c3CCC(C)(C)C4)[nH]c2c1 [Example 282]
2 nM	COCCN(C(=O)CN1C[C@@H](C)OCC1=O)c1ccc2cc(-c3n[nH]c4c3CCC(C)(C)C4)[nH]c2c1 [Example 283]
2 nM	COCCN(C(=O)CN1CCC(C)(C)C1=O)c1ccc2cc(-c3n[nH]c4c3CCC(C)(C)C4)[nH]c2c1 [Example 285]
2 nM	COCCN(C(=O)CN1CCOCC1=O)c1ccc2cc(-c3n[nH]c4c3CCC(C)(C)C4)[nH]c2c1 [Example 286]
2 nM	CCC(=O)N(C)CC(=O)N(CC)c1ccc2cc(-c3n[nH]c4c3CCC(C)(C)C4)[nH]c2c1 [Example 292]
1 nM	CCN(C(=O)CN1CC(C)(C)OCC1=O)c1ccc2cc(-c3n[nH]c4c3CCC(C)(C)C4)[nH]c2c1 [Example 277]
1 nM	COCCN(C(=O)CN1CC(C)(C)OCC1=O)c1ccc2cc(-c3n[nH]c4c3CCC(C)(C)C4)[nH]c2c1 [Example 278]
1 nM	CCN(C(=O)CN1CCC(C)(C)C1=O)c1ccc2cc(-c3n[nH]c4c3CCC(C)(C)C4)[nH]c2c1 [Example 284]
1 nM	COCCN(C(=O)CN1CCCCC1=O)c1ccc2cc(-c3n[nH]c4c3CCC(C)(C)C4)[nH]c2c1 [Example 287]
1 nM	CCN(C(=O)CN(C)C(C)=O)c1ccc2cc(-c3n[nH]c4c3CCC(C)(C)C4)[nH]c2c1 [Example 291]
